This is an account of results in PubChem BioAssay (NCI).

Each structure is given as a SMILES string.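 Results reflect a 48-hour exposure of cells in 96-well plates to compound at five concentrations. TGI is the concentration that stops growth completely.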

Among the test systems are DLD-1 colon; LXFL 529 NSCLC; M19-MEL melanoma; SF-268 CNS; XF 498 CNS; NCI-H522 lung; MOLT-4 leukemia; DMS 273 small cell lung; CCRF-CEM leukemia; DMS 114 small cell lung; KM20L2 colon; RXF-631 renal; HOP-18 NSCLC; SNB-78 CNS.
Holding throughout (test): growth of human tumour cells (NCI), 48 h

As for `CCC12CCCNC1c1c(n(C)c3ccccc13)C(C(=O)OC)C2` (centres undefined), the TGI is more than 275 µM in the assay with DLD-1 colon; more than 275 µM in the assay on LXFL 529 NSCLC; 194 µM with M19-MEL melanoma; more than 275 µM with SF-268 CNS; 123 µM in the assay on XF 498 CNS; 37.6 µM in the assay with NCI-H522 lung. Besides, the TGI with MOLT-4 leukemia is more than 275 µM; in the assay on DMS 273 small cell lung, 246 µM; with CCRF-CEM leukemia it was more than 275 µM; with DMS 114 small cell lung, 152 µM; in the assay with KM20L2 colon it was 231 µM.
Turning to `Cc1ccc(S(=O)(=O)N2c3ccccc3[C@H]3CCC=C[C@H]32)cc1`, the TGI with RXF-631 renal is more than 100 µM; in the assay with DLD-1 colon, more than 100 µM; in the assay on LXFL 529 NSCLC it was more than 93.9 µM; in the assay on HOP-18 NSCLC, more than 100 µM; in the assay with M19-MEL melanoma, 37.8 µM; in the assay with SF-268 CNS, more than 76.1 µM. Further, the TGI with XF 498 CNS is 73.7 µM; in the assay with NCI-H522 lung, 6.35 µM; in the assay with MOLT-4 leukemia, more than 73.8 µM; in the assay with DMS 273 small cell lung it was 18.9 µM; with CCRF-CEM leukemia it was more than 87.2 µM; with DMS 114 small cell lung it was 15.1 µM. The figures for the TGI in the assay on KM20L2 colon and in the assay on SNB-78 CNS were 10.3 µM and more than 85.7 µM, respectively.
In the case of `Cc1cc(C)n2c(-c3ccccc3)c(C)cc2n1`, the TGI was more than 100 µM in the assay with RXF-631 renal; more than 100 µM with DLD-1 colon; more than 100 µM with HOP-18 NSCLC; more than 100 µM with M19-MEL melanoma; more than 100 µM in the assay with SF-268 CNS; 64.4 µM in the assay with NCI-H522 lung. Also, the TGI is more than 100 µM in the assay on DMS 273 small cell lung; 43.6 µM in the assay with CCRF-CEM leukemia; more than 100 µM with DMS 114 small cell lung; more than 100 µM in the assay on KM20L2 colon; more than 100 µM with SNB-78 CNS.
Consider `COC(=O)C1=CC2CC1C(S(=O)(=O)c1ccccc1)C2S(=O)(=O)c1ccccc1` (centres undefined), for which the TGI worked out at 26.9 µM in the assay with RXF-631 renal; 29.8 µM in the assay on DLD-1 colon; 18.6 µM in the assay with LXFL 529 NSCLC; 30.5 µM in the assay with HOP-18 NSCLC; 42.2 µM in the assay on M19-MEL melanoma; 53.5 µM in the assay on SF-268 CNS. The TGI was 19.6 µM in the assay on MOLT-4 leukemia; 23.4 µM in the assay on DMS 273 small cell lung; 8.44 µM with CCRF-CEM leukemia; 36 µM with DMS 114 small cell lung; 33.2 µM in the assay with KM20L2 colon.
Consider `CC(Oc1ccc(OCC2CCCCC2)cc1)C(=O)NCCO` (centres undefined), for which the TGI in the assay with DLD-1 colon, with LXFL 529 NSCLC, in the assay with HOP-18 NSCLC, in the assay on M19-MEL melanoma, in the assay on SF-268 CNS and in the assay on NCI-H522 lung was more than 100 µM in each case. The TGI with MOLT-4 leukemia, with DMS 273 small cell lung, in the assay with CCRF-CEM leukemia, in the assay on DMS 114 small cell lung and in the assay on SNB-78 CNS was more than 100 µM each time.
On to `COC(=O)c1c2c(cc3c1CC1(C3)Cc3cc4c(c(C(C)=O)c3C1)CCC4)C=CC2` (centres undefined), for which the TGI in the assay with SF-268 CNS, in the assay on NCI-H522 lung, with MOLT-4 leukemia and in the assay on CCRF-CEM leukemia was more than 31.6 µM throughout.
On to `COC(=O)C(C(=O)C(=O)Nc1ccccc1C#N)c1nc2ccc([N+](=O)[O-])cc2[nH]c1=O` (centres undefined), for which the TGI with SF-268 CNS, in the assay on NCI-H522 lung, in the assay with MOLT-4 leukemia and in the assay on CCRF-CEM leukemia was more than 100 µM in each case.
On to `COC(CC1(/C=C/O[Si](C(C)C)(C(C)C)C(C)C)C(=O)N(COCC[Si](C)(C)C)c2ccccc21)OC` (centres undefined), for which the TGI with SF-268 CNS was 38.4 µM; in the assay on NCI-H522 lung, 23.6 µM; in the assay with MOLT-4 leukemia it was more than 100 µM; in the assay with CCRF-CEM leukemia, more than 100 µM.
Regarding `COc1cccc(CCNc2c(C#N)c3nc4ccccc4n3c3ccccc23)c1`, the TGI in the assay with SF-268 CNS was more than 100 µM; in the assay on NCI-H522 lung, 0.397 µM; in the assay on MOLT-4 leukemia, more than 100 µM; in the assay with CCRF-CEM leukemia, more than 100 µM.
Regarding `CCOC(=O)C1C(c2ccc(O)c(OC)c2)c2c([nH][nH]c2=O)CC1(C)O` (centres undefined), the TGI in the assay with SF-268 CNS, with NCI-H522 lung, with MOLT-4 leukemia and in the assay on CCRF-CEM leukemia was more than 100 µM each time.
With `COC(=O)C(Cc1ccccc1)NP(=O)(O)OCC1OC(n2cc(I)c(=O)[nH]c2=O)CC1O` (centres undefined), the TGI in the assay with SF-268 CNS, with NCI-H522 lung, with MOLT-4 leukemia and with CCRF-CEM leukemia was more than 100 µM each time.
For the compound `CN(C)c1ccc(-c2c(C#N)c(O)n(NS(=O)(=O)c3ccccc3)c(=O)c2C#N)cc1`, the TGI in the assay on SF-268 CNS, in the assay with NCI-H522 lung, in the assay on MOLT-4 leukemia and in the assay on CCRF-CEM leukemia was more than 100 µM in each case.
Turning to `COc1cc(OC)c2c(=O)c(OC)c(-c3ccc4c(c3)OCO4)oc2c1OC`, the TGI is more than 100 µM in the assay with SF-268 CNS, more than 100 µM with NCI-H522 lung, more than 100 µM in the assay with MOLT-4 leukemia and 83.5 µM in the assay on CCRF-CEM leukemia.
Consider `CC(=O)OC1CC2(C)OC(Cc3ccccc32)O1` (centres undefined), for which the TGI in the assay with DLD-1 colon, in the assay with HOP-18 NSCLC, with M19-MEL melanoma, in the assay with SF-268 CNS, in the assay on XF 498 CNS and in the assay on NCI-H522 lung was more than 100 µM each time. For the same compound, the TGI in the assay with MOLT-4 leukemia, in the assay with DMS 273 small cell lung, with CCRF-CEM leukemia, with DMS 114 small cell lung, in the assay with KM20L2 colon and in the assay with SNB-78 CNS was more than 100 µM each time.
For `CC(=O)Oc1c2c(c(CC=C(C)C)c3c1C(=O)C1=C[C@@H]4CC5C(C)(C)OC(C/C=C(/C)C(=O)O)(C4=O)[C@@]15O3)OC(C)(CCC=C(C)C)C=C2` (some centres undefined), the TGI is 1.56 µM in the assay on SF-268 CNS, 0.281 µM in the assay on NCI-H522 lung, 32 µM in the assay with MOLT-4 leukemia and 4.75 µM with CCRF-CEM leukemia.
As to `CCOC(=O)CSc1nnc(CSc2nc(-c3ccccc3)c(-c3ccccc3)[nH]2)n1-c1ccccc1`, the TGI with DLD-1 colon is more than 100 µM; with LXFL 529 NSCLC it was 42.4 µM; in the assay on M19-MEL melanoma it was more than 100 µM; in the assay on SF-268 CNS, more than 81.3 µM; in the assay with XF 498 CNS it was 46.3 µM; with NCI-H522 lung, more than 100 µM. Besides, the TGI is more than 93.8 µM with MOLT-4 leukemia; more than 100 µM in the assay on DMS 273 small cell lung; more than 100 µM with CCRF-CEM leukemia; 39.8 µM in the assay on DMS 114 small cell lung; 59.2 µM in the assay on KM20L2 colon; 68.5 µM with SNB-78 CNS.
Turning to `Cc1cc2oc(-c3ccccc3)c(C)c(=O)c2c2c1OC(C)(C)S2`, the TGI in the assay on RXF-631 renal, in the assay on DLD-1 colon, in the assay on LXFL 529 NSCLC, in the assay with HOP-18 NSCLC, with M19-MEL melanoma and with SF-268 CNS was more than 100 µM in each case. Further, the TGI in the assay with XF 498 CNS, with NCI-H522 lung, in the assay with MOLT-4 leukemia, in the assay on DMS 273 small cell lung, with CCRF-CEM leukemia and with DMS 114 small cell lung was more than 100 µM throughout. In the assay on KM20L2 colon, this compound came in with a TGI of more than 100 µM.
Turning to `Cc1cc(S(=O)(=O)NC2=NC(c3ccccc3)c3cc(Cl)ccc3N2)c(S)cc1Cl` (centres undefined), the TGI in the assay on SF-268 CNS, with NCI-H522 lung, in the assay on MOLT-4 leukemia and with CCRF-CEM leukemia was more than 100 µM in each case.
Consider `CN1C(=O)C(C(N)=O)C2CC1(C)Oc1ccccc12` (centres undefined), for which the TGI in the assay with SF-268 CNS, with NCI-H522 lung, with MOLT-4 leukemia and in the assay on CCRF-CEM leukemia was more than 100 µM each time.
Consider `O=c1c2ccccc2nc2n1C(c1ccc([N+](=O)[O-])cc1)C2(c1ccccc1)c1ccccc1` (centres undefined), for which the TGI in the assay on SF-268 CNS, in the assay on NCI-H522 lung, with MOLT-4 leukemia and with CCRF-CEM leukemia was more than 100 µM throughout.
With `S=C(N/N=C/c1ccccn1)Nc1ccc(Cl)cc1`, the TGI in the assay on SF-268 CNS was more than 45.7 µM; in the assay with NCI-H522 lung, 0.18 µM; in the assay with MOLT-4 leukemia, more than 100 µM; with CCRF-CEM leukemia, 1.92 µM.
For `Cc1ccc2c(c1)C1(OC(=O)c3ccccc31)c1ccc(F)cc1O2` (centres undefined), the TGI in the assay on RXF-631 renal, in the assay with DLD-1 colon, in the assay on LXFL 529 NSCLC, in the assay on HOP-18 NSCLC, in the assay with M19-MEL melanoma and in the assay on SF-268 CNS was more than 100 µM in each case. Also, the TGI in the assay with XF 498 CNS is more than 100 µM; with NCI-H522 lung it was more than 100 µM; in the assay with MOLT-4 leukemia it was 54.9 µM; in the assay on CCRF-CEM leukemia, more than 100 µM; with DMS 114 small cell lung it was more than 100 µM; with KM20L2 colon it was more than 100 µM.
